Experiments:
human CB2 receptor = human CB2 receptor (Homo sapiens (Human), UniProt P34972); test: Radioligand binding assay, [3H]-CP-55,940, membranes of HEK cells expressing human CNR2; conditions: 2.6 nM [3H]-CP-55,940, HEK cell membranes, 1 h at 30° C.
Procedure: (§1) Radioligand Binding Assay
(§2) The affinity of the compounds of the invention for cannabinoid receptors was determined using recommended amounts of membrane preparations (PerkinElmer) of human embryonic kidney (HEK) cells expressing the human CNR1 or CNR2 receptors in conjunction with 1.5 or 2.6 nM [3H]-CP-55,940 (Perkin Elmer) as radioligand, respectively. Binding was performed in binding buffer (50 mM Tris, 5 mM MgCl2, 2.5 mM EDTA, and 0.5% (wt/vol) fatty acid free BSA, pH 7.4 for CB1 receptor and 50 mM Tris, 5 mM MgCl2, 2.5 mM EGTA, and 0.1% (wt/vol) fatty acid free BSA, pH 7.4 for CB2 receptor) in a total volume of 0.2 mL for 1 h at 30° C. shaking. The reaction was terminated by rapid filtration through microfiltration plates coated with 0.5% polyethylenimine (UniFilter GF/B filter plate; Packard). Bound radioactivity was analyzed for Ki using nonlinear regression analysis (Activity Base, ID Business Solution, Limited), with the Kd values for [^3H]CP55,940 determined from saturation experiments.
The compounds according to formula (I) have an activity in the above assay (Ki) particularly of 0.5 nM to 10 μM, more particularly of 0.5 nM to 3 μM and most particularly of 0.5 nM to 100 nM.

human CB1 receptor = human CB1 receptor (Homo sapiens (Human), UniProt P21554); test: Radioligand binding assay, [3H]-CP-55,940, membranes of HEK cells expressing human CNR1; conditions: 1.5 nM [3H]-CP-55,940, HEK cell membranes, 1 h at 30° C.
Procedure: as §1, §2

Chain of human CB1 receptor (P21554 whole entry): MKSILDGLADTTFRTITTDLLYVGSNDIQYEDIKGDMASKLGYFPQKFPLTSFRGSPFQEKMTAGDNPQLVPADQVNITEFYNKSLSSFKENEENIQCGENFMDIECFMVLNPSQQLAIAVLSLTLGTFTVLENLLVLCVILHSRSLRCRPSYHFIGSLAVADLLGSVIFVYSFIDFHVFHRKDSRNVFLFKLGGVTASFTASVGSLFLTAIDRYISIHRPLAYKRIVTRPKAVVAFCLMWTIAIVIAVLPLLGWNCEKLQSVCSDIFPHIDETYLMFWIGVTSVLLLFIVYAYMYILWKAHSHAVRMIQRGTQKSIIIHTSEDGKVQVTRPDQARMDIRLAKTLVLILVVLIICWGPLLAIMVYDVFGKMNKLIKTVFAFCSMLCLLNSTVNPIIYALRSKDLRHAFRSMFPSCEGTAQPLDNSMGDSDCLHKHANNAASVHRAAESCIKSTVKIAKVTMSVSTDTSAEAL
Chain of human CB2 receptor (P34972 whole entry): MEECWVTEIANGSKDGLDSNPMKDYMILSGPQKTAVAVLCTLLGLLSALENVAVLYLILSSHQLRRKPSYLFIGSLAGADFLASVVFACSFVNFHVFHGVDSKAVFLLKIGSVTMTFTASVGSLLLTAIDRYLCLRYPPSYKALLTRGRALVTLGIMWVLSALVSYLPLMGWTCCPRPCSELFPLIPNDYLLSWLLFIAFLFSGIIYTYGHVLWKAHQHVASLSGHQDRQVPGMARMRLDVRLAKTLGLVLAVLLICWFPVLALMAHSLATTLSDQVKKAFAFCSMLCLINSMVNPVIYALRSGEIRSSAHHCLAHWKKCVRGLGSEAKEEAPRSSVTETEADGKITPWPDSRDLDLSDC

Structure (SMILES)	Ki (human CB2 receptor) [nM]	Ki (human CB1 receptor) [nM]
Cc1nonc1Cn1nnc2c(N3CCC4(C3)N=N4)nc(C(C)(C)C)nc21 [Example 1, 5-tert-Butyl-3-[(4-methyl-1,2,5-oxadiazol-3-yl)methyl]-7-(1,2,5-triazaspiro[2.4]hept-1-en-5-yl)-3H-[1,2,3]triazolo[4,5-d]pyrimidine]	16.1	2960
FC(F)(F)c1ccccc1Cn1nnc2c(N3CCC4(C3)N=N4)nc(C(F)(F)c3ccccc3)nc21 [Example 2, 5-[Difluoro(phenyl)methyl]-7-(1,2,5-triazaspiro[2.4]hept-1-en-5-yl)-3-{[2-(trifluoromethyl)phenyl]methyl}-3H-[1,2,3]triazolo[4,5-d]pyrimidine]	0.8	993
CC(C)(C)c1nc(N2CCC3(C2)N=N3)c2nnn(Cc3ccccc3Cl)c2n1 [Example 3, 5-tert-Butyl-3-[(2-chlorophenyl)methyl]-7-(1,2,5-triazaspiro[2.4]hept-1-en-5-yl)-3H-[1,2,3]triazolo[4,5-d]pyrimidine]	3.3	321
CC(C)(C)c1nc(N2CCC(F)(F)C2)c2nnn(Cc3ccccc3C3(C(F)(F)F)N=N3)c2n1 [Example 4, 5-tert-Butyl-7-(3,3-difluoropyrrolidin-1-yl)-3-({2-[3-(trifluoromethyl)-3H-diaziren-3-yl]phenyl}methyl)-3H-[1,2,3]triazolo[4,5-d]pyrimidine]	4.2	488
C#Cc1ccccc1Cn1nnc2c(N3CCC4(C3)N=N4)nc(C(C)(C)C)nc21 [Example 5, 5-tert-Butyl-3-[(2-ethynylphenyl)methyl]-7-(1,2,5-triazaspiro[2.4]hept-1-en-5-yl)-3H-[1,2,3]triazolo[4,5-d]pyrimidine]	5.6	132
FC(F)(c1ccccc1)c1nc(N2CCC3(C2)N=N3)c2nnn(Cc3ccccc3Cl)c2n1 [Example 6, 3-[(2-Chlorophenyl)methyl]-5-[difluoro(phenyl)methyl]-7-(1,2,5-triazaspiro[2.4]hept-1-en-5-yl)-3H-[1,2,3]triazolo[4,5-d]pyrimidine]	9.9	799
Cc1nonc1Cn1nnc2c(N3CCC4(C3)N=N4)nc(C(F)(F)c3ccccc3)nc21 [Example 7, 5-[Difluoro(phenyl)methyl]-3-[(4-methyl-1,2,5-oxadiazol-3-yl)methyl]-7-(1,2,5-triazaspiro[2.4]hept-1-en-5-yl)-3H-[1,2,3]triazolo[4,5-d]pyrimidine]	45.5	5410
CC(C)(C)c1nc(N2CCC(F)(F)C2)c2nnn(Cc3ccc(C4(C(F)(F)F)N=N4)cc3Cl)c2n1 [Example 8, 5-tert-Butyl-3-({2-chloro-4-[3-(trifluoromethyl)-3H-diaziren-3-yl]phenyl}methyl)-7-(3,3-difluoropyrrolidin-1-yl)-3H-[1,2,3]triazolo[4,5-d]pyrimidine]	55.6	> 10000
C#CCCC1(CCNC(=O)c2nonc2Cn2nnc3c(N4CCC(F)(F)C4)nc(C(C)(C)C)nc32)N=N1 [Example 9, 4-{[5-tert-Butyl-7-(3,3-difluoropyrrolidin-1-yl)-3H-[1,2,3]triazolo[4,5-d]pyrimidin-3-yl]methyl}-N-{2-[3-(but-3-yn-1-yl)-3H-diaziren-3-yl]ethyl}-1,2,5-oxadiazole-3-carboxamide]	1160	> 10000
C#CCCC1(CCNC(=O)c2nonc2Cn2nnc3c(N4CC[C@H](O)C4)nc(C(C)(C)C)nc32)N=N1 [Example 10, 4-({5-tert-Butyl-7-[(3S)-3-hydroxypyrrolidin-1-yl]-3H-[1,2,3]triazolo[4,5-d]pyrimidin-3-yl}methyl)-N-{2-[3-(but-3-yn-1-yl)-3H-diaziren-3-yl]ethyl}-1,2,5-oxadiazole-3-carboxamide]	200	> 10000
C#Cc1ccccc1Cn1nnc2c(N3CCC4(C3)N=N4)nc(C(F)(F)c3ccccc3)nc21 [Example 11, 5-[Difluoro(phenyl)methyl]-3-[(2-ethynylphenyl)methyl]-7-(1,2,6-triazaspiro[2.4]hept-1-en-6-yl)triazolo[4,5-d]pyrimidine]	19	465
C#Cc1cccc(C2(C(F)(F)F)N=N2)c1Cn1nnc2c(N3CCC(F)(F)C3)nc(C(F)(F)c3ccccc3)nc21 [Example 12, 5-[Difluoro(phenyl)methyl]-7-(3,3-difluoropyrrolidin-1-yl)-3-[[2-ethynyl-6-[3-(trifluoromethyl)diazirin-3-yl]phenyl]methyl]triazolo[4,5-d]pyrimidine]	31	3390
C#Cc1cccc(C2(C(F)(F)F)N=N2)c1Cn1nnc2c(N3CCC(F)(F)C3)nc(C(C)(C)C)nc21 [Example 13, 5-tert-Butyl-7-(3,3-difluoropyrrolidin-1-yl)-3-[[2-ethynyl-6-[3-(trifluoromethyl)diazirin-3-yl]phenyl]methyl]triazolo[4,5-d]pyrimidine]	9	147
C#Cc1cccc(C2(C(F)(F)F)N=N2)c1Cn1nnc2c(N3CC[C@H](O)C3)nc(C(C)(C)C)nc21 [Example 14, (3S)-1-[5-tert-Butyl-3-[[2-ethynyl-6-[3-(trifluoromethyl)diazirin-3-yl]phenyl]methyl]triazolo[4,5-d]pyrimidin-7-yl]pyrrolidin-3-ol]	12	> 10000
C#Cc1cccc(C2(C(F)(F)F)N=N2)c1Cn1nnc2c(N3CC[C@H](O)C3)nc(C(F)(F)c3ccccc3)nc21 [Example 15, (3S)-1-[5-[Difluoro(phenyl)methyl]-3-[[2-ethynyl-6-[3-(trifluoromethyl)diazirin-3-yl]phenyl]methyl]triazolo[4,5-d]pyrimidin-7-yl]pyrrolidin-3-ol]	58	> 10000
